# Data reported in US20240139213A1 (priority 2017, published 2024).
# Test system: Subjects with a variety of atopic conditions
# Format: in vivo, human
# Parameters: key: a score of 1 was given if symptoms worsened; a score of 2 was given if there was no change in symptoms; a score of 3 was given if there was some improvement in symptoms; a score of 4 was given if there were marked improvement in symptoms
# Conditions: Subject D; eosinophilic esophagitis and GERD; Vitamin D3 4000 IU for 9 months without a probiotic compound
structure (smiles),measurement,value
C=C1CC[C@H](O)C/C1=C/C=C1\CCC[C@]2(C)[C@@H]([C@H](C)CCCC(C)C)CC[C@@H]12 [Vitamin D3],score on 4 point scale,2
